Assay results: PubChem BioAssay AID1963832 (Molecular Pharmacology Branch, DTP, NCI, 2024)

Tested on: 885724-159-R-J1-PDC complex spheroid viability
Test: Anticancer human tumor 885724-159-R-J1-PDC patient-derived pancreatic adenocarcinoma cell line growth inhibition [POLQ]
Settings: for IC50: curve of first compound; for viability, T/C: stronger effect = lower value
Outline: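 Three-cell-type spheroids modelling solid tumor plus stroma served as the readout system; POL inhibitors were tested individually and in combination, concentration ranges set by clinical Cmax where known.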

[1] = second compound 0.0316 µM, first compound 0.00316 µM
[2] = second compound 0.0316 µM, first compound 0.01 µM
[3] = second compound 0.0316 µM, first compound 0.0316 µM
[4] = second compound 0.0316 µM, first compound 0.1 µM
[5] = second compound 0.0316 µM, first compound 0.316 µM
[6] = second compound 0.0316 µM, first compound 1 µM
[7] = second compound 0.1 µM, first compound 0.00316 µM
[8] = second compound 0.1 µM, first compound 0.01 µM
[9] = second compound 0.1 µM, first compound 0.0316 µM
[10] = second compound 0.1 µM, first compound 0.1 µM
[11] = second compound 0.1 µM, first compound 0.316 µM
[12] = second compound 0.1 µM, first compound 1 µM
[13] = second compound 0.316 µM, first compound 0.00316 µM
[14] = second compound 0.316 µM, first compound 0.01 µM
[15] = second compound 0.316 µM, first compound 0.0316 µM
[16] = second compound 0.316 µM, first compound 0.1 µM
[17] = second compound 0.316 µM, first compound 0.316 µM
[18] = second compound 0.316 µM, first compound 1 µM
[19] = second compound 1 µM, first compound 0.00316 µM
[20] = second compound 1 µM, first compound 0.01 µM
[21] = second compound 1 µM, first compound 0.0316 µM
[22] = second compound 1 µM, first compound 0.1 µM
[23] = second compound 1 µM, first compound 0.316 µM
[24] = second compound 1 µM, first compound 1 µM
[25] = second compound 3.16 µM, first compound 0.00316 µM
[26] = second compound 3.16 µM, first compound 0.01 µM
[27] = second compound 3.16 µM, first compound 0.0316 µM
[28] = second compound 3.16 µM, first compound 0.1 µM
[29] = second compound 3.16 µM, first compound 0.316 µM
[30] = second compound 3.16 µM, first compound 1 µM
[31] = second compound 10 µM, first compound 0.00316 µM
[32] = second compound 10 µM, first compound 0.01 µM
[33] = second compound 10 µM, first compound 0.0316 µM
[34] = second compound 10 µM, first compound 0.1 µM
[35] = second compound 10 µM, first compound 0.316 µM
[36] = second compound 10 µM, first compound 1 µM
[37] = second compound 0.0316 µM, first compound 3.16 µM
[38] = second compound 0.0316 µM, first compound 10 µM
[39] = second compound 0.1 µM, first compound 3.16 µM
[40] = second compound 0.1 µM, first compound 10 µM
[41] = second compound 0.316 µM, first compound 3.16 µM
[42] = second compound 0.316 µM, first compound 10 µM
[43] = second compound 1 µM, first compound 3.16 µM
[44] = second compound 1 µM, first compound 10 µM
[45] = second compound 3.16 µM, first compound 3.16 µM
[46] = second compound 3.16 µM, first compound 10 µM
[47] = second compound 10 µM, first compound 3.16 µM
[48] = second compound 10 µM, first compound 10 µM
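Note: spheroids exposed to compounds for 7 days.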

CCc1c2c(nc3ccc(O)cc13)-c1cc3c(c(=O)n1C2)COC(=O)[C@]3(O)CC + Cc1cccc(N(C)C(=O)C2C(O)CCN2c2nc(C)cc(C(F)(F)F)c2C#N)c1
IC50 (second compound 0.0316 µM): 96.3 nM | IC50 (second compound 0.1 µM): 66.8 nM | IC50 (second compound 0.316 µM): 75.2 nM | IC50 (second compound 1 µM): 58.8 nM | IC50 (second compound 3.16 µM): 53 nM | IC50 (second compound 10 µM): 56.8 nM | viability, T/C [1]: 80.9% | viability, T/C [2]: 53.6% | viability, T/C [3]: 53.3% | viability, T/C [4]: 52.6% | viability, T/C [5]: 39.9% | viability, T/C [6]: 5.13% | viability, T/C [7]: 80.6% | viability, T/C [8]: 64.4% | viability, T/C [9]: 50.5% | viability, T/C [10]: 49.4% | viability, T/C [11]: 35.3% | viability, T/C [12]: 4.47% | viability, T/C [13]: 82.7% | viability, T/C [14]: 68.3% | viability, T/C [15]: 55.5% | viability, T/C [16]: 47.4% | viability, T/C [17]: 34.5% | viability, T/C [18]: 4.66% | viability, T/C [19]: 79.6% | viability, T/C [20]: 65.8% | viability, T/C [21]: 51.8% | viability, T/C [22]: 46.8% | viability, T/C [23]: 34.5% | viability, T/C [24]: 4.77% | viability, T/C [25]: 98% | viability, T/C [26]: 62.3% | viability, T/C [27]: 51.7% | viability, T/C [28]: 50.7% | viability, T/C [29]: 28.6% | viability, T/C [30]: 4.41% | viability, T/C [31]: 80.2% | viability, T/C [32]: 64.9% | viability, T/C [33]: 52.2% | viability, T/C [34]: 46.4% | viability, T/C [35]: 30.1% | viability, T/C [36]: 4.59%

CNCc1ccc(-c2[nH]c3cc(F)cc4c3c2CCNC4=O)cc1 + Cc1cccc(N(C)C(=O)C2C(O)CCN2c2nc(C)cc(C(F)(F)F)c2C#N)c1
IC50 (second compound 0.0316 µM): > 10000 nM | IC50 (second compound 0.1 µM): > 10000 nM | IC50 (second compound 0.316 µM): > 10000 nM | IC50 (second compound 1 µM): > 10000 nM | IC50 (second compound 3.16 µM): > 10000 nM | IC50 (second compound 10 µM): > 10000 nM | viability, T/C [3]: 92.2% | viability, T/C [4]: 102% | viability, T/C [5]: 98.2% | viability, T/C [6]: 89.2% | viability, T/C [37]: 90.3% | viability, T/C [38]: 83.9% | viability, T/C [9]: 104% | viability, T/C [10]: 104% | viability, T/C [11]: 91.1% | viability, T/C [12]: 92.7% | viability, T/C [39]: 93.3% | viability, T/C [40]: 83.2% | viability, T/C [15]: 104% | viability, T/C [16]: 94.1% | viability, T/C [17]: 102% | viability, T/C [18]: 87.9% | viability, T/C [41]: 92% | viability, T/C [42]: 88.5% | viability, T/C [21]: 92.2% | viability, T/C [22]: 89.5% | viability, T/C [23]: 88.7% | viability, T/C [24]: 113% | viability, T/C [43]: 91% | viability, T/C [44]: 86.3% | viability, T/C [27]: 102% | viability, T/C [28]: 90.8% | viability, T/C [29]: 97.5% | viability, T/C [30]: 96.3% | viability, T/C [45]: 92.5% | viability, T/C [46]: 85.2% | viability, T/C [33]: 97% | viability, T/C [34]: 103% | viability, T/C [35]: 85.2% | viability, T/C [36]: 88% | viability, T/C [47]: 86.1% | viability, T/C [48]: 88.5%

COc1cccc(OCCCN)c1-c1cc(Nc2cnc(C#N)cn2)n[nH]1 + Cc1cccc(N(C)C(=O)C2C(O)CCN2c2nc(C)cc(C(F)(F)F)c2C#N)c1
IC50 (second compound 0.0316 µM): 10.6 nM | IC50 (second compound 0.1 µM): 20.7 nM | IC50 (second compound 0.316 µM): 10.6 nM | IC50 (second compound 1 µM): 9.08 nM | IC50 (second compound 3.16 µM): 8.91 nM | IC50 (second compound 10 µM): 9.02 nM | viability, T/C [1]: 71.8% | viability, T/C [2]: 51.3% | viability, T/C [3]: 42.9% | viability, T/C [4]: 44.4% | viability, T/C [5]: 46.4% | viability, T/C [6]: 45.6% | viability, T/C [7]: 78.5% | viability, T/C [8]: 57.1% | viability, T/C [9]: 42.5% | viability, T/C [10]: 46.8% | viability, T/C [11]: 45.5% | viability, T/C [12]: 48.6% | viability, T/C [13]: 71.9% | viability, T/C [14]: 52.2% | viability, T/C [15]: 40.9% | viability, T/C [16]: 42.7% | viability, T/C [17]: 41.8% | viability, T/C [18]: 48.7% | viability, T/C [19]: 73% | viability, T/C [20]: 48.5% | viability, T/C [21]: 41.9% | viability, T/C [22]: 44% | viability, T/C [23]: 41.6% | viability, T/C [24]: 46.8% | viability, T/C [25]: 71.8% | viability, T/C [26]: 46.6% | viability, T/C [27]: 47.5% | viability, T/C [28]: 48% | viability, T/C [29]: 47.8% | viability, T/C [30]: 47.6% | viability, T/C [31]: 76.6% | viability, T/C [32]: 47.4% | viability, T/C [33]: 45.4% | viability, T/C [34]: 44.3% | viability, T/C [35]: 48.2% | viability, T/C [36]: 48.2%

O=C(c1cc(Cc2n[nH]c(=O)c3ccccc23)ccc1F)N1CCN(C(=O)C2CC2)CC1 + Cc1cccc(N(C)C(=O)C2C(O)CCN2c2nc(C)cc(C(F)(F)F)c2C#N)c1
IC50 (second compound 0.0316 µM): > 10000 nM | IC50 (second compound 0.1 µM): > 10000 nM | IC50 (second compound 0.316 µM): > 10000 nM | IC50 (second compound 1 µM): > 10000 nM | IC50 (second compound 3.16 µM): > 10000 nM | IC50 (second compound 10 µM): > 10000 nM | viability, T/C [3]: 85.9% | viability, T/C [4]: 99.1% | viability, T/C [5]: 97.2% | viability, T/C [6]: 94.2% | viability, T/C [37]: 94.6% | viability, T/C [38]: 76.3% | viability, T/C [9]: 97.3% | viability, T/C [10]: 104% | viability, T/C [11]: 100% | viability, T/C [12]: 102% | viability, T/C [39]: 94.7% | viability, T/C [40]: 83.1% | viability, T/C [15]: 104% | viability, T/C [16]: 91.7% | viability, T/C [17]: 91.9% | viability, T/C [18]: 99.6% | viability, T/C [41]: 98% | viability, T/C [42]: 75.9% | viability, T/C [21]: 109% | viability, T/C [22]: 84.3% | viability, T/C [23]: 89.1% | viability, T/C [24]: 94.1% | viability, T/C [43]: 94.6% | viability, T/C [44]: 86.1% | viability, T/C [27]: 92% | viability, T/C [28]: 89.7% | viability, T/C [29]: 99.1% | viability, T/C [30]: 89.2% | viability, T/C [45]: 103% | viability, T/C [46]: 82.9% | viability, T/C [33]: 98% | viability, T/C [34]: 109% | viability, T/C [35]: 109% | viability, T/C [36]: 86.1% | viability, T/C [47]: 104% | viability, T/C [48]: 79.9%
